According to ChEMBL document CHEMBL5058564, “EUbOPEN Chemogenomics Library 2 (Incucyte)” (2022):

Experiments:
Type in all cases: toxicity, cell-based
Fibroblast = experiment: Incucyte cell viability with human fibroblast; details: 10 µM, compound concentration 10 uM
HEK-293T = experiment: Incucyte cell viability with HEK293T; details: human, 10 µM, compound concentration 10 uM
U2OS = experiment: Incucyte cell viability with U2OS; details: human, 10 µM, compound concentration 10 uM
[1] = 0 h, replicate number 2, timepoint 0 hours
[2] = 6 h, replicate number 1, timepoint 6 hours
[3] = 12 h, replicate number 1, timepoint 12 hours
[4] = 12 h, replicate number 2, timepoint 12 hours
[5] = 18 h, replicate number 1, timepoint 18 hours
[6] = 18 h, replicate number 2, timepoint 18 hours
[7] = 24 h, replicate number 1, timepoint 24 hours
[8] = 24 h, replicate number 2, timepoint 24 hours
[9] = 0 h, replicate number 1, timepoint 0 hours
[10] = 6 h, replicate number 2, timepoint 6 hours
Also: unitless GR value; below 1 slowed growth and below 0 cell loss.

| SMILES | Growth Rate (Fibroblast; [1]) | Growth Rate (Fibroblast; [2]) | Growth Rate (Fibroblast; [3]) | Growth Rate (Fibroblast; [4]) | Growth Rate (Fibroblast; [5]) | Growth Rate (Fibroblast; [6]) | Growth Rate (Fibroblast; [7]) | Growth Rate (HEK-293T; [1]) | Growth Rate (HEK-293T; [2]) | Growth Rate (HEK-293T; [5]) | Growth Rate (HEK-293T; [7]) | Growth Rate (HEK-293T; [8]) | Growth Rate (U2OS; [9]) | Growth Rate (U2OS; [1]) | Growth Rate (U2OS; [2]) | Growth Rate (U2OS; [10]) | Growth Rate (U2OS; [3]) | Growth Rate (U2OS; [5]) | Growth Rate (Fibroblast; [9]) | Growth Rate (U2OS; [6]) | other results |
| --- | --- | --- | --- | --- | --- | --- | --- | --- | --- | --- | --- | --- | --- | --- | --- | --- | --- | --- | --- | --- | --- |
| C[N+]1(C)[C@@H]2C[C@@H](OC(=O)C(O)(c3cccs3)c3cccs3)C[C@H]1[C@@H]1O[C@@H]12.O.[Br-] [TIOTROPIUM BROMIDE] | -0.05 | -0.47 | 0.71 | 0.99 | 1 | 0.83 | 0.95 | -0.14 | 0.86 | 0.7 | 0.79 | 0.91 | 0.04 | 0.9 | 0.61 | 0.93 | 0.64 | 0.68 |  |  | Growth Rate (Fibroblast; [8]): 0.7; Growth Rate (HEK-293T; [9]): 0.54; Growth Rate (HEK-293T; [3]): 0.87; Growth Rate (HEK-293T; [6]): 0.99; Growth Rate (U2OS; [7]): 0.86 |
| Cc1ccccc1N1CCN(CCc2nnc3n2CCCC3)CC1.Cl [DAPIPRAZOLE HYDROCHLORIDE] | 0.16 |  | 0.81 |  |  |  | 0.68 | -0.18 | 0.83 | 0.93 | 0.96 |  | 0.33 |  | 0.94 |  | 0.78 |  | -0.42 |  | Growth Rate (Fibroblast; [10]): 0.85 |
| CCCC(CCC)C(=O)O [VALPROIC ACID] | 0.88 | 0.27 | 0.85 |  |  |  |  | 0.39 | 0.68 | 0.94 | 0.87 |  | 0.41 | -1 |  | 0.75 | 0.96 | 0.9 |  | 0.81 | Growth Rate (HEK-293T; [9]): 0.84 |
| CSCC[C@H](NC(=O)[C@H](CC(C)C)NC(=O)CNC(=O)[C@H](Cc1ccccc1)N(C)C(=O)[C@H](Cc1ccccc1)NC(=O)[C@H](CC(=O)O)NC(=O)CCC(=O)O)C(N)=O [SENKTIDE] | 0.41 |  | 0.98 | 0.87 |  |  | 0.9 | -0.03 | 0.83 | 0.92 | 0.84 | 0.88 |  |  |  |  | 0.94 |  | 0.34 | 0.91 | Growth Rate (Fibroblast; [10]): 0.25; Growth Rate (HEK-293T; [9]): 0.75; Growth Rate (HEK-293T; [4]): 0.93; Growth Rate (U2OS; [4]): 0.98 |
| CCC(=O)NC[C@@H]1C[C@H]1c1cccc2c1CCO2 [TASIMELTEON] | 0.97 | 0.35 | 0.48 | 0.49 | 0.69 | 0.76 | 0.48 | 0.1 | 0.74 | 0.92 | 0.79 | 0.99 | -0.37 | -0.06 | 0.85 | 0.51 | 0.97 |  |  | 0.96 | Growth Rate (Fibroblast; [10]): 0.26; Growth Rate (Fibroblast; [8]): 0.82; Growth Rate (HEK-293T; [9]): 0.74; Growth Rate (HEK-293T; [6]): 0.94; Growth Rate (U2OS; [4]): 0.81; Growth Rate (U2OS; [8]): 0.96 |
| O=C(O)CCc1ccc(NCc2cccc(Oc3ccccc3)c2)cc1 [GW9508] | 0.43 |  | 1 |  |  |  |  | 0.79 |  |  | 0.98 |  |  | 0.8 |  | 0.91 | 1 |  | -0.2 | 0.97 |  |
| CN(C(=O)c1ccccc1)c1cc(N(C)c2ccc3c(c2)CCc2ccc(C(=O)NCCN4CCOCC4)cc2C3=O)ccc1F [FM-743] | 0.69 | -0.57 | -0.68 | -0.23 | -0.66 | -0.08 | -0.58 |  | -0.43 | -0.33 | -0.25 | -0.11 | 0.89 | 0.49 |  | 0.79 |  | 0.81 | 0.51 | 0.66 | Growth Rate (Fibroblast; [10]): -0.35; Growth Rate (Fibroblast; [8]): -0.28; Growth Rate (HEK-293T; [10]): 0; Growth Rate (HEK-293T; [3]): -0.34; Growth Rate (HEK-293T; [4]): -0.27; Growth Rate (HEK-293T; [6]): -0.15; Growth Rate (U2OS; [4]): 0.72; Growth Rate (U2OS; [7]): 0.74; Growth Rate (U2OS; [8]): 0.53 |
| OCc1cc(C(O)CNCCCCCCOCCCCc2ccccc2)ccc1O (stereo unspecified) [SALMETEROL] | 0.63 |  |  | 0.59 |  | 0.72 |  |  | 0.2 | 0.75 | 0.7 | 0.71 |  |  | 0.56 |  | 0.56 | 0.81 | 0.1 |  | Growth Rate (HEK-293T; [10]): 0.28; Growth Rate (HEK-293T; [3]): 0.7; Growth Rate (HEK-293T; [4]): 0.57; Growth Rate (HEK-293T; [6]): 0.72; Growth Rate (U2OS; [4]): 0.98; Growth Rate (U2OS; [7]): 0.95 |
| Cc1cc(Nc2ncc(Cl)c(Nc3ccccc3S(=O)(=O)C(C)C)n2)c(OC(C)C)cc1C1CCNCC1 [CERITINIB] |  | -1 | -0.99 | -0.78 | -0.95 | -0.6 | -0.88 |  | -0.87 | -0.45 | -0.35 | -0.38 | -0.86 | -0.57 | -0.94 | -0.91 | -0.82 | -0.66 |  | -0.52 | Growth Rate (Fibroblast; [10]): -0.97; Growth Rate (Fibroblast; [8]): -0.52; Growth Rate (HEK-293T; [10]): -0.92; Growth Rate (HEK-293T; [3]): -0.62; Growth Rate (HEK-293T; [4]): -0.66; Growth Rate (HEK-293T; [6]): -0.48; Growth Rate (U2OS; [4]): -0.74; Growth Rate (U2OS; [7]): -0.58; Growth Rate (U2OS; [8]): -0.42 |
| Cc1c(CC(=O)O)c2cccnc2n1Cc1ccc(S(C)(=O)=O)cc1C(F)(F)F [FEVIPIPRANT] | 0.97 |  |  |  |  |  |  | 0.79 |  |  |  |  | -0.75 | -1 |  | 0.82 |  |  | 0.42 | 0.93 | Growth Rate (U2OS; [8]): 0.88 |
| C[C@]1(O)CC[C@H]2[C@@H]3CCC4=CC(=O)CCC4=C3C=C[C@@]21C [METRIBOLONE] | 0.22 | 0.66 | 0.98 |  |  |  | 0.98 | 0.59 |  | 1 | 0.98 |  |  | 0.07 | 0.83 |  | 0.56 | 0.54 | 0.89 | 0.92 | Growth Rate (Fibroblast; [10]): 0.85; Growth Rate (HEK-293T; [9]): 0.16; Growth Rate (U2OS; [4]): 0.92; Growth Rate (U2OS; [7]): 0.76; Growth Rate (U2OS; [8]): 0.86 |
| Cc1c(C(=O)Nc2ccc(N3C[C@@H](C)O[C@@H](C)C3)nc2)cccc1-c1ccc(OC(F)(F)F)cc1 [SONIDEGIB] | 0.63 | 0.45 | 0.42 |  | 0.13 |  | 0.36 | -0.95 | 0.25 | 0 | 0.05 | -0.3 | -0.44 | -1 |  |  |  |  | 0.97 |  | Growth Rate (HEK-293T; [10]): -0.63; Growth Rate (HEK-293T; [3]): -0.06; Growth Rate (HEK-293T; [4]): -0.54; Growth Rate (HEK-293T; [6]): -0.39; Growth Rate (U2OS; [8]): 0.97 |
| CN(C)C(=O)Cn1cc(-c2ccc(-c3nnc4ccccn34)cc2)cn1 | 0.31 |  | 0.37 | 0.94 | 0.8 | 0.91 | 0.56 |  | 0.7 | 0.88 | 0.78 |  | -0.47 | 0.08 | 0.68 |  | 0.46 | 0.79 | 0.68 | 0.91 | Growth Rate (Fibroblast; [8]): 0.74; Growth Rate (HEK-293T; [9]): 0.69; Growth Rate (HEK-293T; [3]): 0.74; Growth Rate (U2OS; [7]): 0.83 |
